Reference: patent US7846959B2, “Raf modulators and methods of use” (Exelixis, Inc., priority 2004, dated 2010)

Tests used:
c-Raf = c-Raf (Homo sapiens, UniProt P04049); assay: Luciferase-coupled chemiluminescence kinase assay (ATP consumption), c-Raf; assay type: biochemical; conditions: read-out: cRaf-1 IC50
How it was run: (§1)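 Pre-incub. kinase […] + cpd, 30 min RT (20 mM Tris pH 7.5, 10 mM MgCl2, 0.03% TX-100, 1 mM DTT). Start w/ ATP, 3 h ambient. Luciferase-luciferin mix added and luminescence read. Total ATP use 25-60%. IC50 derived.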

B-Raf = B-Raf (Homo sapiens, UniProt P15056); assay: Luciferase-coupled chemiluminescence kinase assay (ATP consumption), B-Raf; assay type: biochemical; conditions: read-out: bRaf IC50
Sequence of B-Raf (P15056 whole entry): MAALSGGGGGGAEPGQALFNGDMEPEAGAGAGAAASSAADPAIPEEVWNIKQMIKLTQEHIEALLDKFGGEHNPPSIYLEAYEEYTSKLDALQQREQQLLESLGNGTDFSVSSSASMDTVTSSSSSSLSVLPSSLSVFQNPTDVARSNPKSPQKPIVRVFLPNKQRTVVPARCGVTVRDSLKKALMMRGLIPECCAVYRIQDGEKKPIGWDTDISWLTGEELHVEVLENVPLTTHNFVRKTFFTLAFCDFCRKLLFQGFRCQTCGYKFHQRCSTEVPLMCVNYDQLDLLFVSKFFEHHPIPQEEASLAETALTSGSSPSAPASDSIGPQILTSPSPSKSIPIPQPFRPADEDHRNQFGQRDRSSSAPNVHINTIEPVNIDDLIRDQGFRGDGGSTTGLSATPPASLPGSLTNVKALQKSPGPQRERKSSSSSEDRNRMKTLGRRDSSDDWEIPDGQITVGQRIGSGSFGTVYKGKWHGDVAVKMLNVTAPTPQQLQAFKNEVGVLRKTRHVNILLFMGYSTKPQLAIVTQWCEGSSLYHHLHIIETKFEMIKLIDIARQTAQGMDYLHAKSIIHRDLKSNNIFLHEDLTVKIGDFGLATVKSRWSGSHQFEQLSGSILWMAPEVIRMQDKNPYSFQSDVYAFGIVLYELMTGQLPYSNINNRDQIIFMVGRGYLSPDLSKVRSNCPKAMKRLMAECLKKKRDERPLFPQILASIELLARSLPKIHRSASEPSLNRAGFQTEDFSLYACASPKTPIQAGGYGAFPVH
How it was run: as §1

Sequence of c-Raf (P04049 whole entry): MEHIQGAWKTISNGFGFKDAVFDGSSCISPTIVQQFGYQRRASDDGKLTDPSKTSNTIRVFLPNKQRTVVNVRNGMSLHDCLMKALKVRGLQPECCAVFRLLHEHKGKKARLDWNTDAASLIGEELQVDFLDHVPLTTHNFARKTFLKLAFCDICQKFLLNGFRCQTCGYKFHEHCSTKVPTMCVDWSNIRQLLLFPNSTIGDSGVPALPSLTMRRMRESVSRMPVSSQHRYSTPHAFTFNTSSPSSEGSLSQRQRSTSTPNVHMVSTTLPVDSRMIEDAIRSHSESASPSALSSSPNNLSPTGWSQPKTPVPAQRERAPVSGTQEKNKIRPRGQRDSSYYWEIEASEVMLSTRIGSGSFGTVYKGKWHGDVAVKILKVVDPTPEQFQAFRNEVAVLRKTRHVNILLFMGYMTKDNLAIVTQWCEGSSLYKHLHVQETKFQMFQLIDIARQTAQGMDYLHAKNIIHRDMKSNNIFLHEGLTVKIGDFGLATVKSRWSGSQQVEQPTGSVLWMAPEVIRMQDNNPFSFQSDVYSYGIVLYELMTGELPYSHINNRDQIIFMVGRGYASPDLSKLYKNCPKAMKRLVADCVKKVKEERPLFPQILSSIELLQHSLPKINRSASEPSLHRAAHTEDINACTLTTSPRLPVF

| SMILES | IC50 (c-Raf) [nM] | IC50 (B-Raf) [nM] |
| --- | --- | --- |
| COC(=O)Nc1nc2cc(C3(O)c4ccccc4C(=O)N3c3cc(Cl)ccc3F)ccc2[nH]1 (stereo not shown) [Entry 197, methyl {5-[2-(5-chloro-2-fluorophenyl)-1-hydroxy-3-oxo-2,3-dihydro-1H-isoindol-1-yl]-1H-benzimidazol-2-yl}carbamate] | < 100 | < 100 |
| COC(=O)Nc1nc2cc(C3(O)c4ccccc4C(=O)N3C(C)c3cc(Cl)ccc3C)ccc2[nH]1 (stereo not shown) [Entry 198, methyl (5-{2-[1-(5-chloro-2-methylphenyl)ethyl]-1-hydroxy-3-oxo-2,3-dihydro-1H-isoindol-1-yl}-1H-benzimidazol-2-yl)carbamate] | 1000 to 10000 | 1000 to 10000 |
| CC[C@@H](c1ccccc1)N1C(=O)c2ccccc2C1(O)c1ccc2[nH]c(NC(=O)OC)nc2c1 (stereo partly drawn) [Entry 199, methyl (5-{1-hydroxy-3-oxo-2-[(1S)-1-phenylpropyl]-2,3-dihydro-1H-isoindol-1-yl}-1H-benzimidazol-2-yl)carbamate] | 1000 to 10000 | 1000 to 10000 |
| COC(=O)Nc1nc2cc(C3(O)c4ccccc4C(=O)N3C(C)c3cccc(Cl)c3C)ccc2[nH]1 (stereo not shown) [Entry 200, methyl (5-{2-[1-(3-chloro-2-methylphenyl)ethyl]-1-hydroxy-3-oxo-2,3-dihydro-1H-isoindol-1-yl}-1H-benzimidazol-2-yl)carbamate] | 1000 to 10000 | 1000 to 10000 |
| COC(=O)Nc1nc2cc(C3(O)c4ccccc4C(=O)N3C(C)c3ccc(C)s3)ccc2[nH]1 (stereo not shown) [Entry 201, methyl (5-{1-hydroxy-2-[1-(5-methyl-2-thienyl)ethyl]-3-oxo-2,3-dihydro-1H-isoindol-1-yl}-1H-benzimidazol-2-yl)carbamate] | < 100 | < 100 |
| COC(=O)Nc1nc2cc(C3(O)c4ccccc4C(=O)N3C(C)c3ccc(Cl)s3)ccc2[nH]1 (stereo not shown) [Entry 202, methyl (5-{2-[1-(5-chloro-2-thienyl)ethyl]-1-hydroxy-3-oxo-2,3-dihydro-1H-isoindol-1-yl}-1H-benzimidazol-2-yl)carbamate] | < 100 | < 100 |
| COC(=O)Nc1nc2cc(C3(O)c4ccccc4C(=O)N3c3cccc(I)c3)ccc2[nH]1 (stereo not shown) [Entry 203, methyl {5-[1-hydroxy-2-(3-iodophenyl)-3-oxo-2,3-dihydro-1H-isoindol-1-yl]-1H-benzimidazol-2-yl}carbamate] | < 100 | < 100 |
| COC(=O)Nc1nc2cc(C3(O)c4ccccc4C(=O)N3c3cccc(C(C)C)c3)ccc2[nH]1 (stereo not shown) [Entry 204, methyl (5-{1-hydroxy-2-[3-(1-methylethyl)phenyl]-3-oxo-2,3-dihydro-1H-isoindol-1-yl}-1H-benzimidazol-2-yl)carbamate] | < 100 | < 100 |
| COC(=O)Nc1nc2cc(C3(O)c4ccccc4C(=O)N3Cc3ccco3)ccc2[nH]1 (stereo not shown) [Entry 205, methyl {5-[2-(furan-2-ylmethyl)-1-hydroxy-3-oxo-2,3-dihydro-1H-isoindol-1-yl]-1H-benzimidazol-2-yl}carbamate] | < 100 | < 100 |
| COC(=O)Nc1nc2cc(C3(O)c4ccccc4C(=O)N3Cc3ccsc3)ccc2[nH]1 (stereo not shown) [Entry 206, methyl {5-[1-hydroxy-3-oxo-2-(3-thienylmethyl)-2,3-dihydro-1H-isoindol-1-yl]-1H-benzimidazol-2-yl}carbamate] | < 100 | < 100 |
| COC(=O)Nc1nc2cc(C3(O)c4ccccc4C(=O)N3CC3CCC3)ccc2[nH]1 (stereo not shown) [Entry 207, methyl {5-[2-(cyclobutylmethyl)-1-hydroxy-3-oxo-2,3-dihydro-1H-isoindol-1-yl]-1H-benzimidazol-2-yl}carbamate] | < 100 | < 100 |
| O=C1c2ccccc2C(O)(c2ccc3[nH]c(NC(=O)C(O)(C(F)(F)F)C(F)(F)F)nc3c2)N1Cc1ccccc1 (stereo not shown) [Entry 208, 3,3,3-trifluoro-2-hydroxy-N-{5-[1-hydroxy-3-oxo-2-(phenylmethyl)-2,3-dihydro-1H-isoindol-1-yl]-1H-benzimidazol-2-yl}-2-(trifluoromethyl)propanamide] | 1000 to 10000 | 1000 to 10000 |
| COC(=O)Nc1nc2cc(C3(O)c4ccccc4C(=O)N3C(C)c3cc(C)cs3)ccc2[nH]1 (stereo not shown) [Entry 209, methyl (5-{1-hydroxy-2-[1-(4-methyl-2-thienyl)ethyl]-3-oxo-2,3-dihydro-1H-isoindol-1-yl}-1H-benzimidazol-2-yl)carbamate] | < 100 | < 100 |
| COC(=O)Nc1nc2cc(C3(O)c4ccccc4C(=O)N3C(C)c3cc(Br)cs3)ccc2[nH]1 (stereo not shown) [Entry 210, methyl (5-{2-[1-(4-bromo-2-thienyl)ethyl]-1-hydroxy-3-oxo-2,3-dihydro-1H-isoindol-1-yl}-1H-benzimidazol-2-yl)carbamate] | < 100 | < 100 |
| COCCOc1cccc(N2C(=O)c3ccccc3C2(O)c2ccc3[nH]c(NC(=O)OC)nc3c2)c1 (stereo not shown) [Entry 211, methyl {5-[1-hydroxy-2-(3-{[2-(methyloxy)ethyl]oxy}phenyl)-3-oxo-2,3-dihydro-1H-isoindol-1-yl]-1H-benzimidazol-2-yl}carbamate] | 1000 to 10000 | 1000 to 10000 |
| O=C(Nc1nc2cc(C3(O)c4ccccc4C(=O)N3Cc3ccccc3)ccc2[nH]1)OCC1CCOC1 (stereo not shown) [Entry 212, tetrahydrofuran-3-ylmethyl {5-[1-hydroxy-3-oxo-2-(phenylmethyl)-2,3-dihydro-1H-isoindol-1-yl]-1H-benzimidazol-2-yl}carbamate] | < 100 | < 100 |
| O=C(Nc1nc2cc(C3(O)c4ccccc4C(=O)N3Cc3ccccc3)ccc2[nH]1)N1CCCCC1 (stereo not shown) [Entry 213, N-{5-[1-hydroxy-3-oxo-2-(phenylmethyl)-2,3-dihydro-1H-isoindol-1-yl]-1H-benzimidazol-2-yl}piperidine-1-carboxamide] | 100 to 1000 | 1000 to 10000 |
| COC(=O)Nc1nc2cc(C3(O)c4ccccc4C(=O)N3c3ccc(F)c(Br)c3)ccc2[nH]1 (stereo not shown) [Entry 214, methyl {5-[2-(3-bromo-4-fluorophenyl)-1-hydroxy-3-oxo-2,3-dihydro-1H-isoindol-1-yl]-1H-benzimidazol-2-yl}carbamate] | < 100 | < 100 |
| O=C(Nc1nc2cc(C3(O)c4ccccc4C(=O)N3Cc3ccccc3)ccc2[nH]1)OCC(O)CO (stereo not shown) [Entry 215, 2,3-dihydroxypropyl {5-[1-hydroxy-3-oxo-2-(phenylmethyl)-2,3-dihydro-1H-isoindol-1-yl]-1H-benzimidazol-2-yl}carbamate] | < 100 | < 100 |
| COC(=O)Nc1nc2cc(C3(O)c4ccccc4C(=O)N3CC3CCCO3)ccc2[nH]1 (stereo not shown) [Entry 216, methyl {5-[1-hydroxy-3-oxo-2-(tetrahydrofuran-2-ylmethyl)-2,3-dihydro-1H-isoindol-1-yl]-1H-benzimidazol-2-yl}carbamate] | 100 to 1000 | 100 to 1000 |
| COC(=O)Nc1nc2cc(C3(O)c4ccccc4C(=O)N3c3cccc(C(N)=O)c3)ccc2[nH]1 (stereo not shown) [Entry 217, methyl (5-{2-[3-(aminocarbonyl)phenyl]-1-hydroxy-3-oxo-2,3-dihydro-1H-isoindol-1-yl}-1H-benzimidazol-2-yl)carbamate] | 100 to 1000 | < 100 |
| O=C(CC(O)(C(F)(F)F)C(F)(F)F)Nc1nc2cc(C3(O)c4ccccc4C(=O)N3Cc3ccccc3)ccc2[nH]1 (stereo not shown) [Entry 218, 4,4,4-trifluoro-3-hydroxy-N-{5-[1-hydroxy-3-oxo-2-(phenylmethyl)-2,3-dihydro-1H-isoindol-1-yl]-1H-benzimidazol-2-yl}-3-(trifluoromethyl)butanamide] | 1000 to 10000 | 1000 to 10000 |
| COC(=O)Nc1nc2cc(C3(O)c4ccccc4C(=O)N3c3cccc(S(C)(=O)=O)c3)ccc2[nH]1 (stereo not shown) [Entry 219, methyl (5-{1-hydroxy-2-[3-(methylsulfonyl)phenyl]-3-oxo-2,3-dihydro-1H-isoindol-1-yl}-1H-benzimidazol-2-yl)carbamate] | 100 to 1000 | 100 to 1000 |
| COC(=O)Nc1nc2cc(C3(O)c4ccccc4C(=O)N3c3cccc(Oc4ccccc4)c3)ccc2[nH]1 (stereo not shown) [Entry 220, methyl (5-{1-hydroxy-3-oxo-2-[3-(phenyloxy)phenyl]-2,3-dihydro-1H-isoindol-1-yl}-1H-benzimidazol-2-yl)carbamate] | < 100 | < 100 |
| COC(=O)Nc1nc2cc(C3(O)c4ccccc4C(=O)N3c3cccc(OCc4ccccc4)c3)ccc2[nH]1 (stereo not shown) [Entry 221, methyl [5-(1-hydroxy-3-oxo-2-{3-[(phenylmethyl)oxy]phenyl}-2,3-dihydro-1H-isoindol-1-yl)-1H-benzimidazol-2-yl]carbamate] | < 100 | 100 to 1000 |
| COC(=O)Nc1nc2cc(C3(O)c4ccccc4C(=O)N3c3cccc(-c4ccccc4)c3)ccc2[nH]1 (stereo not shown) [Entry 222, methyl [5-(2-biphenyl-3-yl-1-hydroxy-3-oxo-2,3-dihydro-1H-isoindol-1-yl)-1H-benzimidazol-2-yl]carbamate] | 1000 to 10000 | 1000 to 10000 |
| CC(C)(COCc1ccccc1)COC(=O)Nc1nc2cc(C3(O)c4ccccc4C(=O)N3Cc3ccccc3)ccc2[nH]1 (stereo not shown) [Entry 223, 2,2-dimethyl-3-[(phenylmethyl)oxy]propyl {5-[1-hydroxy-3-oxo-2-(phenylmethyl)-2,3-dihydro-1H-isoindol-1-yl]-1H-benzimidazol-2-yl}carbamate] | < 100 | 100 to 1000 |
| COC(=O)Nc1nc2cc(C3(O)c4ccccc4C(=O)N3c3cccc(Cl)c3F)ccc2[nH]1 (stereo not shown) [Entry 224, methyl {5-[2-(3-chloro-2-fluorophenyl)-1-hydroxy-3-oxo-2,3-dihydro-1H-isoindol-1-yl]-1H-benzimidazol-2-yl}carbamate] | < 100 | < 100 |
| COC(=O)Nc1nc2cc(C3(O)c4ccccc4C(=O)N3c3cccc(C#N)c3)ccc2[nH]1 (stereo not shown) [Entry 225, methyl {5-[2-(3-cyanophenyl)-1-hydroxy-3-oxo-2,3-dihydro-1H-isoindol-1-yl]-1H-benzimidazol-2-yl}carbamate] | 100 to 1000 | 100 to 1000 |
